The record followed here is patent US10988478B1, “Pyrazolo[1,5a]pyrimidine derivatives as IRAK4 modulators” (Genentech, Inc., priority 2015, dated 2021).

For the test, the target named is human IRAK4 (Homo sapiens (Human), UniProt Q9NWZ3). The experiment in a line: IRAK4 kinase inhibition, Transcreener fluorescence polarization ADP assay. It is filed as biochemical. The conditions noted are these: recombinant full-length His6-IRAK4; 125 uM ATP; 90 min; Ki computed using ATP Km 642 uM. The protocol: Compounds were assayed for inhibition of human IRAK4 and IRAK1 catalytic activity using recombinant enzyme produced from insect cells. Full-length IRAK4 protein, carrying an N-terminal His6-Tag, was obtained from Life Technologies (Carlsbad, Calif., USA). The IRAK1 construct was produced internally and was comprised of IRAK1 residues Arg194 to Ser712, preceded by an NH2-terminal His6 tag and the coding sequence for glutathione-S-transferase.
Sequence of human IRAK4 (Q9NWZ3 whole entry, the tested form may be a part): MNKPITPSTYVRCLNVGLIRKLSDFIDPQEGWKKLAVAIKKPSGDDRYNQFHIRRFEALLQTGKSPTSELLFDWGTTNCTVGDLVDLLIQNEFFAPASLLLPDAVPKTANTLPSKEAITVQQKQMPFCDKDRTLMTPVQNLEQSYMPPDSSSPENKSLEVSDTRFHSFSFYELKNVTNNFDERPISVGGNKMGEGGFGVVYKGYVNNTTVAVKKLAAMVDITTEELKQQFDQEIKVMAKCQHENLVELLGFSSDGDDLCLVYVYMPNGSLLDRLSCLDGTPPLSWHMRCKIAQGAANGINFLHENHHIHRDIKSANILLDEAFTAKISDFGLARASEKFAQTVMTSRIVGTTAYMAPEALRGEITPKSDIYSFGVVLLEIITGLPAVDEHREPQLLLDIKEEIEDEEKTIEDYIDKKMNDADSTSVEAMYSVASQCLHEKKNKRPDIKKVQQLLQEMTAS
Background: Fluorescence polarisation rises when a labelled molecule tumbles more slowly, as on binding a larger partner.
The Ki is a measure of affinity in units of concentration, obtained from inhibition or displacement. In the case of `CN(C)c1cc2c(cc1NC(=O)c1cnn3cccnc13)CN(C[C@@H](F)C(C)(C)O)C2=O` [Example 570, N-[6-(dimethylamino)-2-[(2R)-2-fluoro-3-hydroxy-3-methyl-butyl]-1-oxo-isoindolin-5-yl]pyrazolo[1,5-a]pyrimidine-3-carboxamide], the inhibition constant Ki was 0.00063 µM. Consider “N-(2,2-dimethyl-6-(4-(2-oxo-2-(thiazol-2-ylamino)ethyl)piperazin-1-yl)-2,3-dihydrobenzofuran-5-yl)pyrazolo[1,5-a]pyridine-3-carboxamide [Example 441]”, for which the Ki came to 0.006 µM. On to “N-[2,2-Dimethyl-6-[(5-methyl-1H-pyrazol-3-yl)methoxy]-3H-benzofuran-5-yl]pyrazolo[1,5-a]pyrimidine-3-carboxamide [Example 543]”, for which the Ki turned out to be 0.14 µM. The result for “N-[(2R)-6-[4-(2,2-difluoroethyl)piperazin-1-yl]-2-(hydroxymethyl)-2-methyl-3H-benzofuran-5-yl]-6-fluoro-pyrazolo[1,5-a]pyrimidine-3-carboxamide [Example 494]” reads 0.04 µM; that for “N-[(2S)-6-[4-(2,2-difluoroethyl)piperazin-1-yl]-2-(hydroxymethyl)-2-methyl-3H-benzofuran-5-yl]-6-fluoro-pyrazolo[1,5-a]pyrimidine-3-carboxamide [Example 495]”, 0.017 µM.
